In patent publication US9687494B2, “Iminothiadiazine dioxide compounds as BACE inhibitors, compositions, and their use” (Merck Sharp & Dohme Corp., priority 2009, dated 2017):

Columns and labels:
[1] = Solution stability, Example A (pH 7.4 phosphate buffer/MeOH, LC/MS); type: physicochemical
Method: The following comparative procedures were used.
A 1.05 mg/mL stock solution (5 mL) of Ex. 45 in MeOH was prepared. From the stock solution was taken out 1.25 mL and diluted to 25 mL with the addition of 23.75 mL of 10 mM phosphate buffer (pH 7.4)/MeOH (70/30 v/v). This new solution was split into three. One solution was incubated at 4° C., another incubated at 25° C. and the third incubated at 40° C. Each solution was analyzed by LC/MS after day 1, day 2 and day 6 and compared to a standard calibration curve for Ex. 45.
In the following study, the solution stability of the compound of Example 45 was measured and compared to that of Compound Z. The compound of Example 45 is an iminothiadiazine dioxide compound of the invention. Compound Z is the corresponding iminopyrimidinone compound. The structures of the compound of Example 45 and of Compound Z are shown below. Studies were performed in aqueous pH 7.4 buffer containing methanol at 4° C., 25° C. and 40° C.

[2] = Solution stability, Example B (50 mM pH 7.4 phosphate buffer, 25° C., LC/MS); type: physicochemical
Method: Stock solutions of the tested compounds were prepared by dissolving about 3 mg of each compound in 3 mL of acetonitrile. Standards for test compounds were prepared by diluting 1 mL of the stock solution with an additional 4 mL of acetonitrile. These standards were stored at 4° C. Samples were prepared by diluting 1 mL of the stock solution with 4 mL of 50 mM pH 7.4 phosphate buffer. These samples were stored at 25° C. in the absence of light. Standards and samples were analyzed by LC/MS initially and at day 1, day 4, and day 6.
Mobile phase A: 10 mM pH 5 ammonium acetate buffer:methanol (90:10)
Mobile phase B: 10 mM pH 5 ammonium acetate buffer:methanol (10:90)
Column: Zorbax SB-Phenyl 4.6×50 mm, 1.8 μm
Column temperature: 40° C.
Detectors: UV at 220 nm and 236 nm
MS, ES ionization, positive mode, for identification only at final time point.
The terms reported in the tables below have the following meanings:
Area % is the integration of peak from HPLC as reported by Waters Empower II software.
RRT is the relative retention time of new product compared to the standard of the test compound.
ND stands for no peak detected by the UV detector.
* stands for no ion detected by the mass spectrometer.
In the following study, the solution stability of the compound of Example 47 was measured and compared to that of Compound Y. The compound of Example 47 is an iminothiadiazine dioxide compound of the invention. Compound Y is the corresponding iminopyrimidinone compound. The structures of the compound of Example 47 and of Compound Y are shown below. Studies were performed in pH 7.4 buffer at 25° C.

[3] = Standard (acetonitrile, stored at 4° C.)

| SMILES | Assay (Area %), class symbol ([1]; pH 7.4, 4° C., 2 days) | Assay (Area %), class symbol ([1]; pH 7.4, 4° C., 6 days) | Assay (Area %), class symbol ([1]; pH 7.4, 4° C., time not given) | Assay (Area %), class symbol ([1]; pH 7.4, 25° C., 2 days) | Assay (Area %), class symbol ([1]; pH 7.4, 25° C., 6 days) | Assay (Area %), class symbol ([1]; pH 7.4, 25° C., time not given) | Assay (Area %), class symbol ([1]; pH 7.4, 40° C., 2 days) | Assay (Area %), class symbol ([1]; pH 7.4, 40° C., 6 days) | Assay (Area %), class symbol ([1]; pH 7.4, 40° C., time not given) | Area %, Day 1; compound peak (RRT 1.00) ([2]; Sample at pH 7.4, 25° C.) | Area %, Day 4; compound peak (RRT 1.00) ([2]; Sample at pH 7.4, 25° C.) | Area %, Day 6; compound peak (RRT 1.00) ([2]; Sample at pH 7.4, 25° C.) | Area %, Initial; compound peak (RRT 1.00) ([2]; Sample at pH 7.4, 25° C.) | Area %, Day 1; compound peak (RRT 1.00) [2, 3] | Area %, Day 4; compound peak (RRT 1.00) [2, 3] | Area %, Day 6; compound peak (RRT 1.00) [2, 3] | Area %, Initial; compound peak (RRT 1.00) [2, 3] |
| --- | --- | --- | --- | --- | --- | --- | --- | --- | --- | --- | --- | --- | --- | --- | --- | --- | --- |
| CN1C(=N)N[C@](C)(c2cc(-c3cccc(C#N)c3)cs2)CC1=O [Compound Z] | — ((—) stands for >20% degradation) | — ((—) stands for >20% degradation) | — ((—) stands for >20% degradation) | — ((—) stands for >20% degradation) | — ((—) stands for >20% degradation) | — ((—) stands for >20% degradation) | — ((—) stands for >20% degradation) | — ((—) stands for >20% degradation) | — ((—) stands for >20% degradation) | – | – | – | – | – | – | – | – |
| CN1C(=N)N[C@](C)(c2cc(-c3cccc(C#N)c3)cs2)CS1(=O)=O [Example 45] | – | – | – | – | – | – | – | – | — ((—) stands for >20% degradation) | – | – | – | – | – | – | – | – |
| CC#Cc1cncc(-c2csc([C@]3(C)CS(=O)(=O)N(C)C(=N)N3)c2)c1 [Example 47] | – | – | – | – | – | – | – | – | – | 98.56 Area % | 98.53 Area % | 98.53 Area % | 98.55 Area % | 98.55 Area % | 98.52 Area % | 98.52 Area % | 98.53 Area % |
